Common to all, as to format: cell-based
The target in assay [1] is T1, AHR (Homo sapiens, UniProt P35869).
T1 sequence (P35869 11-848): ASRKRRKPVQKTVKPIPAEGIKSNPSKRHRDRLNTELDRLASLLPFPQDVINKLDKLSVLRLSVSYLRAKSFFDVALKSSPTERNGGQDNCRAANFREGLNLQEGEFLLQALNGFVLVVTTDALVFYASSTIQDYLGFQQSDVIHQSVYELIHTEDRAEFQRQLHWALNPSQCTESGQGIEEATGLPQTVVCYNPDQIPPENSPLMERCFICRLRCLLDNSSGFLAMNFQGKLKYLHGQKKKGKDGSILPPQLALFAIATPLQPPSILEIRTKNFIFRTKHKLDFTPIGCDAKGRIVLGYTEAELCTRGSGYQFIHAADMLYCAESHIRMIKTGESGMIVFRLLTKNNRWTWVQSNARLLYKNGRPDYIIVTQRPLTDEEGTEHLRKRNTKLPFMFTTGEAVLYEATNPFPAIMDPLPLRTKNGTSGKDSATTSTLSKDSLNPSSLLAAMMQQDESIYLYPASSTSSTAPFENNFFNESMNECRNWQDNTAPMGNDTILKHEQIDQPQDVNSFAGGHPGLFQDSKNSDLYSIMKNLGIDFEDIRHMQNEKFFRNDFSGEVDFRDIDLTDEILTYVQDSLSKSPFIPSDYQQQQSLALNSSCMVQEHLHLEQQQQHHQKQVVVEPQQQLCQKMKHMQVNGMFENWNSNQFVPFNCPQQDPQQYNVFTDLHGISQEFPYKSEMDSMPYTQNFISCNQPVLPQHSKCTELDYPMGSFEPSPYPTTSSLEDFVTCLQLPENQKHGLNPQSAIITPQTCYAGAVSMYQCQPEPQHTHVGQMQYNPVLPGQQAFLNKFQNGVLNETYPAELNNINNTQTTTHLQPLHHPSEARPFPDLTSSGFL
Description: In vitro assay 3: AHR-regulated CYP1A1 expression in human cell line (U937, qPCR, KA stimulation). As to conditions: U937 cells, 200 uM KA, 6 hours, CYP1A1 expression by qPCR; read-out: Assay 3: Hum CYP1A1 Antagonism IC50. As to the method: In Vitro Assay 3: AHR-Regulated CYP1A1 Expression in Human Cell Line
To assess the AHR inhibitory activity of the substances described in this application, the ability thereof to antagonise ligand-induced AHR gene regulation in a dose-dependent manner was quantified. For this purpose, quantitative PCR analysis was used to determine expression of the AHR-regulated gene CYP1A1 in a human monocytic U937 cell line upon stimulation with 200 uM KA in the presence and absence of AHR inhibitor. […] CYP1A1 expression was induced with 200 uM KA (positive control) in the presence or absence of the substances for 6 hours. Human U937 cells were typically incubated with eight different concentrations of the substances (1 nM, 3 nM, 10 nM, 30 nM, 100 nM, 300 nM, 1 uM and 3 uM) and analyzed in duplicate on the same microtitre plate. […] Unstimulated cells were used as the negative control. Taqman probes for human CYP1A1 (Hs01054797_g1) and human HPRT (Hs02800695_m1) were used to analyze fold expression of CYP1A1 of HPRT. Quantitation was performed on a Taqman SDS7900HT.
A general note: In qPCR the cycle at which signal appears reflects the starting amount.

Assay [2] deals with T1, AHR. Description: In vitro assay 1: antagonism in human cell line (transactivation assay, U87 cells prestimulated with kynurenic acid, DRE firefly luciferase reporter). Further details: host or cells: U87 glioblastoma cells, stably transfected with DRE firefly luciferase and renilla reporter constructs. The conditions noted are these: 150 uM kynurenic acid, 20 hours, read-out: Assay 1: AHR-luc Hum Antagonism IC50. An outline of the steps:
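U87 glioblastoma cells with endogenous AHR, stably carrying a DRE-driven firefly luciferase reporter and a constitutive renilla reporter. Cells prestimulated with the AHR agonist kynurenic acid before compound addition; data normalized to positive and negative controls.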

The target in assay [3] is T1, AHR. Description: In vitro assay 2: agonism in human cell line (transactivation assay, U87 cells, DRE firefly luciferase reporter). Further details: host or cells: U87 glioblastoma cells, stably transfected with DRE firefly luciferase and renilla reporter constructs. As to conditions: no kynurenic acid, 20 hours, read-out: Assay 2: AHR-luc Hum Agonism IC50. An outline of the steps: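 U87 glioblastoma cells with endogenous AHR, stably carrying DRE-driven firefly luciferase and constitutive renilla reporters. 300 uM kynurenic acid served as positive activation control; data normalized to positive and negative controls.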
In general terms: In a reporter assay the amount or activity of a reporter protein is the signal.

The values below come from patent US12522594B2, “2-heteroaryl-3-oxo-2,3-dihydropyridazine-4-carboxamides for the treatment of cancer” (Deutsches Krebsforschungszentrum, priority 2017, dated 2026).

The structures appear in SMILES notation.

Usually IC50 stands for the midpoint of a concentration-inhibition curve. For the compound `C[C@H](NC(=O)c1cc(-c2ccc(OC(F)F)cc2)nn(-c2cnn(C)c2)c1=O)C(C)(C)O` [Example 309, 6-[4-(Difluoromethoxy)phenyl]-N-[(2S)-3-hydroxy-3-methylbutan-2-yl]-2-(1-methyl-1H-pyrazol-4-yl)-3-oxo-2,3-dihydropyridazine-4-carboxamide], the IC50 on AHR [1] was 0.0403 µM; at AHR [2], 0.0164 µM; at AHR [3], above 20 µM.

As to `O=C(N[C@H]1COC[C@@H]1O)c1cc(-c2ccc(Cl)cc2)nn(-c2cccnc2)c1=O` (single isomer, unassigned; enantiomer 2) [Example 170, 6-(4-Chlorophenyl)-N-[(trans)-4-hydroxytetrahydrofuran-3-yl]-3-oxo-2-(pyridin-3-yl)-2,3-dihydropyridazine-4-carboxamide, Enantiomer 2], the results for the IC50 at AHR [1], on AHR [2] and at AHR [3] were 0.0224 µM, 0.0573 µM and above 20 µM, respectively.

Take `Cc1ccc(-c2cc(C(=O)NCC(O)C(F)(F)F)c(=O)n(-c3cnn(C)c3)n2)cc1` (stereo not drawn) [Example 10, 6-(4-Methylphenyl)-2-(1-methyl-1H-pyrazol-4-yl)-3-oxo-N-(3,3,3-trifluoro-2-hydroxypropyl)-2,3-dihydropyridazine-4-carboxamide]: the IC50 at AHR [1] is 0.0102 µM; on AHR [2] it was 0.00425 µM; on AHR [3], above 20 µM.

For `Cn1cc(-n2nc(-c3ccc(Cl)cc3)cc(C(=O)N[C@H](CO)C(F)(F)F)c2=O)cn1` [Example 35, (+)-6-(4-Chlorophenyl)-2-(1-methyl-1H-pyrazol-4-yl)-3-oxo-N-[(2R)-1,1,1-trifluoro-3-hydroxypropan-2-yl]-2,3-dihydropyridazine-4-carboxamide], the IC50 at AHR [1] is 0.041 µM; at AHR [2], 0.0015 µM; at AHR [3] it was above 20 µM.

For the compound `O=C(N[C@H]1COC[C@H]1O)c1cc(-c2ccc(Cl)cc2)nn(-c2cccnc2)c1=O` (single isomer, unassigned) [Example 172, 6-(4-chlorophenyl)-N-[(cis)-4-hydroxytetrahydrofuran-3-yl]-3-oxo-2-(pyridin-3-yl)-2,3-dihydropyridazine-4-carboxamide], the IC50 was 0.0234 µM at AHR [1], 0.0295 µM at AHR [2] and above 20 µM on AHR [3].

With `O=C(N[C@H]1COC[C@H]1O)c1cc(-c2ccc(Cl)cc2)nn(-c2cccnc2)c1=O` (single isomer, unassigned) [Example 173, 6-(4-Chlorophenyl)-N-[(cis)-4-hydroxytetrahydrofuran-3-yl]-3-oxo-2-(pyridin-3-yl)-2,3-dihydropyridazine-4-carboxamide], the IC50 is 0.14 µM on AHR [1], 0.0549 µM on AHR [2] and above 20 µM at AHR [3].

As for `Cn1cc(-n2nc(-c3ccc(C(F)(F)F)cc3)cc(C(=O)N[C@@H]3COC[C@@H]3O)c2=O)cn1` (single isomer, unassigned) [Example 218, (+)-N-cis-4- Hydroxytetrahyd rofuran-3-yl-2-(1-methyl-1H-pyrazol-4-yl)-3-oxo-6-[4-(trifluoromethyl)phenyl]-2,3-dihydropyridazine-4-carboxamide], the IC50 at AHR [1] is 0.00401 µM; on AHR [2], 0.00278 µM; on AHR [3], above 20 µM.

Turning to `C[C@H](NC(=O)c1cc(-c2ccc(C(F)F)cc2)nn(-c2cccnc2)c1=O)C(C)(C)O` [Example 319, 6-[4-(Difluoromethyl)phenyl]-N-[(2S)-3-hydroxy-3-methylbutan-2-yl]-3-oxo-2-(pyridin-3-yl)-2,3-dihydropyridazine-4-carboxamide], the figures for the IC50 at AHR [1], on AHR [2] and on AHR [3] were 0.0223 µM, 0.0355 µM and above 20 µM, respectively.

With `C[C@@H](CO)NC(=O)c1cc(-c2ccc(C(F)(F)F)cc2)nn(-c2cnn(C)c2)c1=O` [Example 39, (+)-N-[(2S)-1-Hydroxypropan-2-yl]-2-(1-methyl-1H-pyrazol-4-yl)-3-oxo-6-[4-(trifluoromethyl)phenyl]-2,3-dihydropyridazine-4-carboxamide], the IC50 at AHR [1] was 0.00339 µM; on AHR [2] it was 0.00208 µM; on AHR [3] it was above 20 µM.

As for `O=C(NCC(O)C(F)F)c1cc(-c2ccc(C(F)(F)F)cc2)nn(-c2cccnc2)c1=O` (single isomer, unassigned; (-)) [Example 230, (−)-N-(3,3-Difluoro-2-hydroxypropyl)-3-oxo-2-(pyridin-3-yl)-6-[4-(trifluoromethyl)phenyl]-2,3-dihydropyridazine-4-carboxamide], the IC50 at AHR [1] was 0.0104 µM; on AHR [2], 0.00757 µM; at AHR [3], above 20 µM.

Consider `O=C(NC(CO)C1CC1)c1cc(-c2ccc(Cl)cc2)nn(-c2cccnc2)c1=O` (single isomer, unassigned; (-)) [Example 92, (−)-6-(4-Chlorophenyl)-N-(1-cyclopropyl-2-hydroxyethyl)-3-oxo-2-(pyridin-3-yl)-2,3-dihydropyridazine-4-carboxamide], for which the IC50 was 0.00276 µM at AHR [1], 0.019 µM at AHR [2] and above 20 µM at AHR [3].

In the case of `Cn1cc(-n2nc(-c3ccc(C(F)(F)F)cc3)cc(C(=O)N[C@@H]3COC[C@@H]3O)c2=O)cn1` (single isomer, unassigned) [Example 231, (−)-N-cis-4-Hydroxytetra-hydrofuran-3-yl-2-(1-methyl-1H-pyrazol-4-yl)-3-oxo-6-[4-(trifluoromethyl)phenyl]-2,3-dihydropyridazine-4-carboxamide], the IC50 at AHR [1] was 0.00993 µM; on AHR [2], 0.00789 µM; at AHR [3], above 20 µM.

`O=C(N[C@@H]1CCC[C@H]1O)c1cc(-c2ccc(C(F)(F)F)cc2)nn(-c2cccnc2)c1=O` [Example 104, N-[(1R,2R)-2-Hydroxycyclopentyl]-3-oxo-2-(pyridin-3-yl)-6-[4-(trifluoromethyl)phenyl]-2,3-dihydropyridazine-4-carboxamide]: the values for the 50% inhibitory concentration (IC50) at AHR [1], on AHR [2] and at AHR [3] were 0.0148 µM, 0.0202 µM and above 20 µM, respectively.

In the case of `C[C@@H](CO)NC(=O)c1cc(-c2ccc(OC(F)(F)F)cc2)nn(-c2cnn(C)c2)c1=O` [Example 53, N-[(2S)-1-Hydroxypropan-2-yl]-2-(1-methyl-1H-pyrazol-4-yl)-3-oxo-6-[4-(trifluoromethoxy)phenyl]-2,3-dihydropyridazine-4-carboxamide], the IC50 on AHR [1] was 0.0111 µM; at AHR [2] it was 0.0116 µM; on AHR [3] it was above 20 µM.

In the case of `Cn1cc(-n2nc(-c3ccc(Cl)cc3)cc(C(=O)NCC(C)(C)O)c2=O)cn1` [Example 32, 6-(4-Chlorophenyl)-N-(2-hydroxy-2-methylpropyl)-2-(1-methyl-1H-pyrazol-4-yl)-3-oxo-2,3-dihydropyridazine-4-carboxamide], the IC50 was 0.0219 µM on AHR [1], 0.0356 µM at AHR [2] and above 20 µM on AHR [3].

As to `O=C(N[C@H]1CCC[C@@H]1O)c1cc(-c2ccc(C(F)F)cc2)nn(-c2cccnc2)c1=O` [Example 139, 6-[4-(Difluoromethyl)phenyl]-N-[(1S,2S)-2-hydroxycyclopentyl]-3-oxo-2-(pyridin-3-yl)-2,3-dihydropyridazine-4-carboxamide], the IC50 is 0.00916 µM at AHR [1], 0.0092 µM at AHR [2] and above 20 µM at AHR [3].
